Experiments:
Caco-2 cells [1] = assay: M-cell differentiation induction test, FACS analysis using GP2 as an indicator; type: cell-based, human; settings: Caco-2 single-layer film, final concentration 100 μM, cultured 3 days; for expression of GP2 (FACS): vs DMSO control
Procedure: (§1) As an in vitro M-cell model, Caco-2 cells derived from human intestinal epithelium cells were used. The Caco-2 cells were cultured in an EMEM medium (produced by Nissui Pharmaceutical Co., Ltd.) supplemented with 2% fetal calf serum (FCS, produced by CANSERA INTERNATIONAL), 2 mM glutamine (produced by Wako Pure Chemical Industries, Ltd.), and 0.1 mM nonessential amino acid (produced by Gibco) at 37° C. in the presence of 5% CO2. The cells were subcultured within a range of logarithmic growth (2.0×10^5 to 1.0×10^6 cells/mL). The cell concentration was determined by counting the number of living cells and the number of dead cells by the trypan blue staining method.
The induction of the differentiation of M cells by various fatty acids (10-hydroxydecanoic acid, (+/−)-3-hydroxydecanoic acid, (9R)-9,10-dihydroxydecanoic acid, and 10-hydroxy-2-(E)-decenoic acid) was analyzed by FACS using GP2 as an indicator. As the 10-hydroxydecanoic acid (10HDAA), one produced by SIGMA-ALDRICH was used; as the (+/−)-3-hydroxydecanoic acid (311DAA), one produced by SIGMA-ALDRICH was used; and as the 10-hydroxy-2-(E)-decenoic acid (10-HDA), one produced by Wako Pure Chemical Industries, Ltd. was used. The (9R)-9,10-dihydroxydecanoic acid (DDA-11) used was, synthesized based on the method described in Tetrahedron: Asymmetry, 2009, 20, pp. 457-460, by tosylating (4R)-4-(2-hydroxyethyl)-2,2-dimethyl-1,3-dioxolane, and extending the chain with 5-bromo-1-pentene by a Grignard reaction, followed by ozone degradation, Wittig reaction with diethylphosphonic acid ethyl ester, hydrogenation by a catalytic hydrogenation reaction, removal of acetonide by acetic acid treatment, and removal of the ethyl group by potassium hydroxide treatment.
Each of the above fatty acids was prepared as a DMSO solution (10 mM). After the Caco-2 cells were seeded in a 6-well plate and allowed to form a single-layer film, each of the above fatty acids was added so that the final concentration was […]. The same amount of DMSO was added as a control. The medium was as described above. After addition, the cells were cultured at 37° C. in the presence of 5% CO2 for 3 days. After culture, the cells were collected with 1 mM EDTA.2Na/PBS(−) (pH 7.2), and stained with rabbit anti-GP2 antibody (produced by IMGENEX) and Alexa 488-labeled anti-rabbit antibody (produced by Molecular probes). The stained cells were analyzed by FACS (produced by BECKMAN COULTER), and GP2 expression levels were quantified.

Caco-2 cells [2] = assay: M-cell differentiation induction test, morphological analysis by electron microscope; type: cell-based, human; settings: Caco-2 in Transwell insert, 100 μM applied from the apical side, 3 days
Procedure: as §1
After the Caco-2 cells were seeded at 2×10^5 cells in a Transwell insert ([…] Transwell, produced by Corning) and allowed to form a single-layer film, 10-hydroxydecanoic acid (final concentration: […]) was applied from the apical side of the single-layer film, and the cells were cultured at 37° C. in the presence of 5% CO2 for 3 days.

cynomolgus monkeys = tested on: cynomolgus monkeys; set-up: species or system Macaca fascicularis; settings: cynomolgus monkey, in vivo, po

SMILES | expression of GP2 (FACS) (Caco-2 cells [1]) | intensity of induction of GP2 expression compared with (+/−)-3-hydroxydecanoic acid (Caco-2 cells [1]) | cell morphology (microvilli, M cell-like cells) (Caco-2 cells [2]) | anti-Fetuin IgA antibody titer in the feces (cynomolgus monkeys) | anti-influenza virus IgA antibody titer in the feces (cynomolgus monkeys) | anti-poliovirus IgA antibody titer in the feces (cynomolgus monkeys)
CCCCCCCC(O)CC(=O)O (racemic) [(+/−)-3-hydroxydecanoic acid] | induced the expression of GP2 |  |  |  |  | 
O=C(O)/C=C/CCCCCCCO [10-hydroxy-2-(E)-decenoic acid, reference compound] | did not induce the expression of GP2 |  |  |  |  | 
O=C(O)CCCCCCCCCO [10-hydroxydecanoic acid] | induced the expression of GP2 | induced more intensely the expression of GP2 | cells with short microvilli were observed | increases | increases | increases
O=C(O)CCCCCCC[C@@H](O)CO [(9R)-9,10-dihydroxydecanoic acid, reference compound] | did not induce the expression of GP2 |  |  |  |  | 

Reference: patent publication US20200093776A1, “MUCOSAL IMMUNOSTIMULATOR” (Yamada Bee Company, Inc., priority 2015, published 2020)
